Test results as given in US12685735B2 (Foghorn Therapeutics Inc., priority 2020, dated 2026).
Like-named read-outs stand apart in the source and are kept apart here.

What was measured:
[1] = system: Uveal melanoma cell lines, 92-1 or MP41; assay: Comparison of BRG1/BRM inhibitor to clinical PKC and MEK inhibitors, cell growth (Cell-titer glo, 3 days); assay type: cell-based; settings: 92-1 or MP41 cells, versus LXS196 and Selumetinib
Protocol: Procedure: Uveal melanoma cell lines, 92-1 or MP41, were plated in 96 well plates in the presence of growth media (See Table 6). […] Cells were incubated at 37 degrees Celsius for 3 days. After three days of treatment, cell growth was measured with Cell-titer glow (Promega), and luminescence was read on an Envision plate reader (Perkin Elmer).

BRG-1 = BRG-1 (Homo sapiens, UniProt P51532); assay: ATPase catalytic activity assay of BRG-1 (ADP-Glo); assay type: biochemical; settings: ATPase catalytic activity, ADP-Glo; for IC50: read-out: BRG1 IC50 (μM)*; for Emax: read-out: BRG1 Max % Inhibition
How it was run: (§1)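 Measurement is luminescence, reflecting ADP produced by ATPase turnover. The two-step ADP-Glo detection consists of ATP depletion for 40 min and ADP-to-ATP conversion with luciferase for 60 min, both at room temperature.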

BRM = BRM (Homo sapiens, UniProt P51531); assay: ATPase catalytic activity assay of BRM (ADP-Glo); assay type: biochemical; settings: for IC50: read-out: BRM IC50 (μM)*
How it was run: as §1

Sequence of BRG-1 (P51532 whole entry): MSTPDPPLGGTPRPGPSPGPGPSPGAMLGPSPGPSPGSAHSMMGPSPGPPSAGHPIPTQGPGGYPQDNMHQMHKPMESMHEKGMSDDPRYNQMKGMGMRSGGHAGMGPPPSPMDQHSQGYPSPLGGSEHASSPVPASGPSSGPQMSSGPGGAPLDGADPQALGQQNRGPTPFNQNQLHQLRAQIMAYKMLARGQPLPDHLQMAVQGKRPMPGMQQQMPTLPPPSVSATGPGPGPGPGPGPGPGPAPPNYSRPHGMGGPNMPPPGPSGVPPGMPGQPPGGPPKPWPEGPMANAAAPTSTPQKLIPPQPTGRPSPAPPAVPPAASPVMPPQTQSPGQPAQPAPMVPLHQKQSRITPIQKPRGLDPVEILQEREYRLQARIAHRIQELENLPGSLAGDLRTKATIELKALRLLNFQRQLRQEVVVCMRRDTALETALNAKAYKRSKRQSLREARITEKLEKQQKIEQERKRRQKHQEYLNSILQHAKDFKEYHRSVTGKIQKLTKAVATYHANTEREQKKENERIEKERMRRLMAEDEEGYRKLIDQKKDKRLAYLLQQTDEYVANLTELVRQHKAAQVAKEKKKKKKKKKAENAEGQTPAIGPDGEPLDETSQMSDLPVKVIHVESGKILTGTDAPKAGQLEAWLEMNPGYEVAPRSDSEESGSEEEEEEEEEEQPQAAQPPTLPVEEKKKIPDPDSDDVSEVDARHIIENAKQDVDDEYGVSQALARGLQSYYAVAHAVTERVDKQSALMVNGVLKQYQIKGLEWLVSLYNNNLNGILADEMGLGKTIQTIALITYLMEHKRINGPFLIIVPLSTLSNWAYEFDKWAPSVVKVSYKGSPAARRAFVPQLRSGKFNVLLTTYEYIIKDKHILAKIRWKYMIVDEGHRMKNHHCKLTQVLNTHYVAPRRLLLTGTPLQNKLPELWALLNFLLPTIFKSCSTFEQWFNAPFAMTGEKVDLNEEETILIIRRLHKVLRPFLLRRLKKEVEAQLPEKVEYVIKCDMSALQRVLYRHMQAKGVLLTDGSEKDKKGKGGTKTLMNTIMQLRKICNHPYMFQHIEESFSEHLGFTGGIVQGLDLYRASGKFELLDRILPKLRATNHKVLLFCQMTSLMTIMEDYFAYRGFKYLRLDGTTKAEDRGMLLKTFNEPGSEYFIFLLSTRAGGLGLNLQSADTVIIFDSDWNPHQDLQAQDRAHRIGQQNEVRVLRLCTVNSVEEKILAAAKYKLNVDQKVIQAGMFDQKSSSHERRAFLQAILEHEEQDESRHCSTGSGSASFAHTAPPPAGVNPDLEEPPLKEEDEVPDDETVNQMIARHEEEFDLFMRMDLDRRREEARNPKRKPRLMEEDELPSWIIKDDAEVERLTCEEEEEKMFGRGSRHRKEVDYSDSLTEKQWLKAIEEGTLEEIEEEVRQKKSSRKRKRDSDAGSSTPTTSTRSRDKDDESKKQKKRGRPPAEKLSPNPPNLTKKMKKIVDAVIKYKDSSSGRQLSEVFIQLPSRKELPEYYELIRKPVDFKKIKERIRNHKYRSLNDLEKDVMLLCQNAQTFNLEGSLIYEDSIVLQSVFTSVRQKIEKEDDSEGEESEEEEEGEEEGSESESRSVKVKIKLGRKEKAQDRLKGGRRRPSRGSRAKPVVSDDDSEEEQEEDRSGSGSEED
Sequence of BRM (P51531 whole entry): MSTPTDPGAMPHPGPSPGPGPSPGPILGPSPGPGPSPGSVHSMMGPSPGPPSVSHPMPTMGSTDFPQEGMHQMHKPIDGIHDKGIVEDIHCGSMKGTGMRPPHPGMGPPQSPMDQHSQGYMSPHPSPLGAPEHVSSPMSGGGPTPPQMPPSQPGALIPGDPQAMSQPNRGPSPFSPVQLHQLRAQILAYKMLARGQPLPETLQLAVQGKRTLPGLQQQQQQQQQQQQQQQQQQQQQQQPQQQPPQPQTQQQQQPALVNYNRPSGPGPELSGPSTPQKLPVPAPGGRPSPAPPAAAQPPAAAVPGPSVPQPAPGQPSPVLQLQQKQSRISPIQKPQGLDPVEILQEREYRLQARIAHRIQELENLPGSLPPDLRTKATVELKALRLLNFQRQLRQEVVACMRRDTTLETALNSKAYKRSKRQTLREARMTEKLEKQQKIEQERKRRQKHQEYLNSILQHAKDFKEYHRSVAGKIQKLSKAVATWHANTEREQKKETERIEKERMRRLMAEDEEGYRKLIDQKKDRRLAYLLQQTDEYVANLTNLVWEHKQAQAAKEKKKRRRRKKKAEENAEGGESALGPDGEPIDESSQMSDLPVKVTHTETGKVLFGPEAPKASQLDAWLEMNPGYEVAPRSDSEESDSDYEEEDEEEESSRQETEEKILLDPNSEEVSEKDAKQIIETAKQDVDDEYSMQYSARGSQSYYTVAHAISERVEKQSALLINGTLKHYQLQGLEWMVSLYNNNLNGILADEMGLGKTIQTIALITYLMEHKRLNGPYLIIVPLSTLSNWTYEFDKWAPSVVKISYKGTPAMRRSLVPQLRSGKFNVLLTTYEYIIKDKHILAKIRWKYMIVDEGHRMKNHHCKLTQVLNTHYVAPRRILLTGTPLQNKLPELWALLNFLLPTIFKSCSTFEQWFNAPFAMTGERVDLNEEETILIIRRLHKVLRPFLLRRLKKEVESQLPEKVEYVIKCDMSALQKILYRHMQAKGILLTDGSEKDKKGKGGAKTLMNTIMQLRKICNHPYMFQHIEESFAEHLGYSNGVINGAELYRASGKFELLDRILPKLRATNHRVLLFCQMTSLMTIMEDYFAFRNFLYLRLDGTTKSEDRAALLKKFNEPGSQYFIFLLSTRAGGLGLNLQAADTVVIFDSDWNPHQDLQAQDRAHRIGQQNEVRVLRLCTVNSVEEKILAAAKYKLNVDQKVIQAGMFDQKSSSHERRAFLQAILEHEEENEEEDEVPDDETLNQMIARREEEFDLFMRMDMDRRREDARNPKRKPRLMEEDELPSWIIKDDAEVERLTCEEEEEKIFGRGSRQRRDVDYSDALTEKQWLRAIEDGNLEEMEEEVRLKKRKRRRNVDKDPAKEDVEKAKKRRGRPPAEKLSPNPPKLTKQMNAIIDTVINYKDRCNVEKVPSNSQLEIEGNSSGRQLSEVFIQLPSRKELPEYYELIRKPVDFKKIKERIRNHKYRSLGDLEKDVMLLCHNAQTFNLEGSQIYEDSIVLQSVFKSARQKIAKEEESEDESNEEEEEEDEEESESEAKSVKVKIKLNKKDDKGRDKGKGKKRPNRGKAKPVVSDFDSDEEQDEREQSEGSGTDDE

| Structure (SMILES) | growth inhibition of uveal melanoma cells compared with the clinical PKC and MEK inhibitors ([1]; 0 to 10 micromolar, 3 days, FIGS. 2A and 2B) | onset of inhibition compared with the clinical PKC and MEK inhibitors [1] | IC50 (BRG-1) [µM] | Emax (BRG-1) [%] | BRM Max % Inhibition (BRM) [%] | IC50 (BRM) [µM] | IC50 (BRG-1; 30 nM BRG-1, 400 μM ATP) [µM] | Emax (BRG-1; 30 nM BRG-1, 400 μM ATP) [%] | BRM Max % Inhibition (BRM; 30 nM BRM, 400 μM ATP) [%] | IC50 (BRM; 30 nM BRM, 400 μM ATP) [µM] |
| --- | --- | --- | --- | --- | --- | --- | --- | --- | --- | --- |
| CSCC[C@H](NC(=O)c1ccc(N)cc1)C(=O)Nc1nc(-c2cccc(-c3ccncc3)c2)cs1 [Compound A] | comparable growth inhibition | faster onset of inhibition |  |  |  |  |  |  |  |  |
| C[C@@H]1CN(c2cccc(-c3csc(NC(=O)CNC(=O)c4cccc([C@@H]5COC[C@H]5O)c4)n3)c2)C[C@H](C)O1 [Compound 157, N-(2-((4-(3-((cis)-2,6-dimethylmorpholino)phenyl)thiazol-2-yl)amino)-2-oxoethyl)-3-((3R,4S)-4-hydroxytetrahydrofuran-3-yl)benzamide] |  |  | > 5 | > 30 | >70 | 0.1 to 1 |  |  |  |  |
| COc1cccc(-c2csc(NC(=O)CNC(=O)c3ccc4c(c3)C(C)(C#N)CCN4C)n2)c1 (centres unmarked) [Compound 394, 4-cyano-N-(2-((4-(3-methoxyphenyl)thiazol-2-yl)amino)-2-oxoethyl)-1,4-dimethyl-1,2,3,4-tetrahydroquinoline-6-carboxamide] |  |  | > 5 | > 80 | >80 | 0.1 to 1 |  |  |  |  |
| C[C@@H]1CN(c2cccc(-c3csc(NC(=O)CNC(=O)c4cccc(C5(C(F)F)COC5)c4)n3)c2)C[C@H](C)O1 [Compound 419, 3-(3-(difluoromethyl)oxetan-3-yl)-N-(2-((4-(3-((cis)-2,6-dimethylmorpholino)phenyl)thiazol-2-yl)amino)-2-oxoethyl)benzamide] |  |  |  |  |  |  | 0.1 to 1 | > 95 | >95 | < 0.1 |
